According to ChEMBL document CHEMBL4689842, “EUbOPEN Chemogenomics Library wave 1” (2021):

Tests used:
Format in all cases: toxicity, cell-based
HEK-293T = test: Incucyte cell viability with HEK293T; details: human, 10 µM, compound concentration 10 uM
U2OS = test: Incucyte cell viability with U2OS; details: human, 10 µM, compound concentration 10 uM
Fibroblast = test: Incucyte cell viability with human fibroblast; details: 10 µM, compound concentration 10 uM
[1] = 0 h, replicate number 1, timepoint 0 hours
[2] = 6 h, replicate number 1, timepoint 6 hours
[3] = 12 h, replicate number 1, timepoint 12 hours
[4] = 12 h, replicate number 2, timepoint 12 hours
[5] = 18 h, replicate number 1, timepoint 18 hours
[6] = 18 h, replicate number 2, timepoint 18 hours
[7] = 24 h, replicate number 1, timepoint 24 hours
[8] = 24 h, replicate number 2, timepoint 24 hours
[9] = 6 h, replicate number 2, timepoint 6 hours
[10] = 0 h, replicate number 2, timepoint 0 hours
Also: filed as whole numbers so only -1 and 0 and 1 occur.

Row | SMILES | Growth Rate (HEK-293T; [1]) | Growth Rate (HEK-293T; [2]) | Growth Rate (HEK-293T; [3]) | Growth Rate (HEK-293T; [4]) | Growth Rate (HEK-293T; [5]) | Growth Rate (HEK-293T; [7]) | Growth Rate (U2OS; [1]) | Growth Rate (U2OS; [9]) | Growth Rate (U2OS; [3]) | Growth Rate (U2OS; [4]) | Growth Rate (U2OS; [5]) | Growth Rate (U2OS; [7]) | Growth Rate (Fibroblast; [1]) | Growth Rate (Fibroblast; [3]) | Growth Rate (Fibroblast; [5]) | Growth Rate (Fibroblast; [7]) | Growth Rate (HEK-293T; [10]) | Growth Rate (Fibroblast; [6]) | Growth Rate (U2OS; [2]) | Growth Rate (U2OS; [8]) | further results
1 | CN1CC(=O)N=C1NC(=O)Nc1cccc(Cl)c1 [FENOBAM ANHYDROUS] | 0 | 1 | 1 | 0 | 1 | 1 | 0 | 1 | 0 | 1 | 1 | 1 | 0 | 1 | 1 | 1 | – | – | – | – | Growth Rate (HEK-293T; [6]): 0; Growth Rate (HEK-293T; [8]): 0
2 | CN(C)CCCn1cc(C2=C(c3c[nH]c4ccccc34)C(=O)NC2=O)c2ccccc21 [GF-109203] | 0 | 0 | 0 | – | 0 | 0 | – | – | 1 | – | 0 | 0 | 0 | 1 | 0 | 0 | 1 | 1 | – | – | Growth Rate (U2OS; [10]): 0
3 | COc1ccc(COc2ccc(Cc3cnc(N)nc3N)cc2OC)cc1 [GW632580X] | – | 0 | 0 | – | 0 | 0 | 0 | – | 1 | 0 | 1 | 1 | 1 | 1 | 1 | 1 | – | 0 | 0 | 0 | Growth Rate (U2OS; [6]): 0; Growth Rate (Fibroblast; [2]): 1; Growth Rate (Fibroblast; [9]): 0; Growth Rate (Fibroblast; [4]): 0; Growth Rate (Fibroblast; [8]): 0
4 | N#Cc1ccccc1OCC(O)CNCCNC(=O)Nc1ccccc1 (stereo not drawn) [ICI-89406] | 1 | 0 | 0 | 1 | 1 | 1 | 0 | 0 | 0 | – | 0 | 1 | 0 | 0 | 0 | 0 | 0 | – | 1 | 0 | Growth Rate (Fibroblast; [2]): 0
